One experiment addresses T1, BChE (Homo sapiens, UniProt P06276).
T1 construct: purchased Sigma Inc
The experiment in a line: BChE inhibition assay (Ellman method with slight modifications). The experiment is classed as biochemical. Conditions: for inhibition at 500 µM: read-out: BChE Inhibition, Inhibition (%) at 0.5 mM. On the procedure: (§1) The AChE and BChE inhibition activity was performed according to the method of Ellman with slight modifications. Total volume of the reaction mixture was 100 µL contained 60 µL Na2HPO4 buffer with concentration of 50 mM and pH 7.7. A 10 µL test compound (0.5 mM per well) was added, followed by the addition of 10 µL enzyme (0.005 unit AChE, 0.5 unit BChE per well, Sigma Inc). […] The reaction was initiated by the addition of 10 µL of 0.5 mM per well substrate (acetylthiocholine iodide or butyrylthiocholine bromide), followed by the addition of 10 µL DTNB (0.5 mM per well). […] Synergy HT (BioTek, USA) 96-well plate reader was used in all experiments. All experiments were carried out with their respective controls in triplicate. […] The percent inhibition was calculated by the help of following equation.
(§2) Inhibition%=Control−Test/Control×100

The next experiment has as its target T2, AChE (Homo sapiens, UniProt P22303).
T2 construct: purchased Sigma Inc
Description: biochemical. The experiment is classed as biochemical. Conditions: for inhibition at 500 µM: read-out: AChE Inhibition, Inhibition (%) at 0.5 mM. Here is the method:
as §1, §2

Where [1] appears, read: 0.5 mM test compound, mean with SEM.
The mark [2] stands for this setting: mean with SEM, read-out: BChE Inhibition, IC50.
The mark [3] stands for this setting: mean with SEM, read-out: AChE Inhibition, IC50.

The results in this text go back to paper PMC3977535, “Design and Synthesis of New Dual Binding Site Cholinesterase Inhibitors: in vitro Inhibition Studies with in silico Docking” (Letters in Drug Design & Discovery, 2014).

Where two headings read alike, the source gives them in different places.

T1 sequence (P06276 29-602): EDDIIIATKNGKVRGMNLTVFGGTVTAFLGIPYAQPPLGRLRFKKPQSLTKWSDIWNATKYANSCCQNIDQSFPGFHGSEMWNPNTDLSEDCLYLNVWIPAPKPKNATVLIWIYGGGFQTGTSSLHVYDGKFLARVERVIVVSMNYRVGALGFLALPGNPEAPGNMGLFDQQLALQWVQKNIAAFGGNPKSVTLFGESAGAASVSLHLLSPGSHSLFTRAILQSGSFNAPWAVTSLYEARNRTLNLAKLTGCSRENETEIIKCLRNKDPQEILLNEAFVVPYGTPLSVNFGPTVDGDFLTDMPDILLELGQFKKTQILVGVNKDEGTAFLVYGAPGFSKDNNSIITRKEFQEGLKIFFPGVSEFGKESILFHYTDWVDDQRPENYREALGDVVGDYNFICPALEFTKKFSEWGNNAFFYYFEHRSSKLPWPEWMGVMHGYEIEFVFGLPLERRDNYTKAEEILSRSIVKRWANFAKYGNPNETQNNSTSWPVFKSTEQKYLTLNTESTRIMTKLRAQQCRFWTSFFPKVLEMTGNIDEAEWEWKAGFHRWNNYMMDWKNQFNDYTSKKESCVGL
T2 sequence (P22303 32-614): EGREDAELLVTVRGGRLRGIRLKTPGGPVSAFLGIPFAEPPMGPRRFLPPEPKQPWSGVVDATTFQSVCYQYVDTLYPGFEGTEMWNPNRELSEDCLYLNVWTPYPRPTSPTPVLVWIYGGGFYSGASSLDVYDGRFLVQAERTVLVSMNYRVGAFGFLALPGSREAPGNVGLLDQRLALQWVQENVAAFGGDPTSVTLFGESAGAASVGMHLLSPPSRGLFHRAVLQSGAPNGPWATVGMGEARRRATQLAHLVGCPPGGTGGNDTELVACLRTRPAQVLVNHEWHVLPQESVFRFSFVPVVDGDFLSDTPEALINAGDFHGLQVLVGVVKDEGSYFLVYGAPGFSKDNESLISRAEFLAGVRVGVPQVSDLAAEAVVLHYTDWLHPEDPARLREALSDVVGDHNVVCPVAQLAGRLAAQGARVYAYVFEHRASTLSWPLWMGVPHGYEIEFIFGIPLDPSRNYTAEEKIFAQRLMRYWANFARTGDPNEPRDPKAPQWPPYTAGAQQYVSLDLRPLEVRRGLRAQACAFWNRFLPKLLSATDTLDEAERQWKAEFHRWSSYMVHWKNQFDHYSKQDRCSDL

One may read the IC50 as the point on the concentration scale where inhibition reaches its midpoint. For orientation: inhibition means how much of the control response was suppressed. With `NNC(=O)Cc1c[nH]c2ccccc12` [Compound 3], on BChE, the IC50 worked out at 139.21 ± 0.07 µM and the inhibition at 500 µM amounted to 73.95 ± 0.67%. For the same molecule, on AChE, the IC50 is 152.11 ± 0.07 µM and the inhibition at 500 µM turned out to be 69.16 ± 0.25%.

Regarding `O=C(Cc1c[nH]c2ccccc12)NNC(=O)C(F)(F)F` [Compound 5b, N'-(2-(1H-indol-3-yl)acetyl)-2,2,2-trifluoroacetohydrazide], the inhibition at 500 µM on BChE (setting [1]) was 86.64 ± 0.24%; at AChE (setting [1]) it was 75.22 ± 0.41%. Further, the IC50 at BChE (setting [2]) is 68.91 ± 0.07 µM; on AChE (setting [3]), 152.31 ± 0.07 µM.

As to `Cc1ccc(/C=N/NC(=O)Cc2c[nH]c3ccccc23)cc1` [Compound 4d], the “inhibitory activity against BChE (in words)” value at BChE is reported as “weak”. Also, the figures for the inhibition at 500 µM at BChE (setting [1]) and on AChE (setting [1]) were 43.6 ± 0.55% and 79.54 ± 0.54%, respectively. Further, the IC50 on AChE (setting [3]) amounted to 98.81 ± 0.14 µM.

On to `Cc1ccc(S(=O)(=O)NNC(=O)Cc2c[nH]c3ccccc23)cc1` [Compound 6a, N'-(2-(1H-Indol-3-yl)acetyl)-4-methylbenzenesulfonohydrazide], for which the inhibition at 500 µM at BChE (setting [1]) was 72.52 ± 0.33%; on AChE (setting [1]), 78.11 ± 0.36%. Also, the IC50 on BChE (setting [2]) was determined as 101.2 ± 0.16 µM; at AChE (setting [3]) it was 121.4 ± 0.16 µM.

On to `O=C(Cc1c[nH]c2ccccc12)NNC(=O)Oc1ccccc1` [Compound 5c, Phenyl 2-(2-(1H-indol-3-yl)acetyl)hydrazinecarboxylate], for which, on BChE, the “inhibitory activity against BChE (in words)” value is “weak” and the inhibition at 500 µM is 39.29 ± 0.25%. On AChE, the “inhibitory activity against AChE (in words)” value is given as “weak” and the inhibition at 500 µM turned out to be 55.91 ± 0.33%.

On to `O=C(Cc1c[nH]c2ccccc12)NNS(=O)(=O)c1ccccc1[N+](=O)[O-]` [Compound 6b, N'-(2-(1H-Indol-3-yl)acetyl)-2-nitrobenzenesulfonohydrazide], for which the “inhibitory activity against BChE (in words)” value on BChE is listed as “weak”. The inhibition at 500 µM on BChE (setting [1]) came out at 42.61 ± 0.42%; at AChE (setting [1]), 46.41 ± 0.21%. Moreover, the “inhibitory activity against AChE (in words)” value at AChE is on record as “weak”.

Consider `O=C(Cc1c[nH]c2ccccc12)NNS(=O)(=O)c1ccc([N+](=O)[O-])cc1` [Compound 6d, N'-(2-(1H-Indol-3-yl)acetyl)-4-nitrobenzenesulfonohydrazide], for which the inhibition at 500 µM was 63.69 ± 0.61% at BChE (setting [1]) and 58.62 ± 0.52% on AChE (setting [1]). In addition, the IC50 on BChE (setting [2]) is below 400 µM. For the same molecule, the “inhibitory activity against AChE (in words)” value at AChE is given as “weak”.

As for `COC(=O)Cc1c[nH]c2ccccc12` [Compound 2], the inhibition at 500 µM was determined as 59.82 ± 0.15% on BChE (setting [1]) and 70.61 ± 0.34% at AChE (setting [1]). Moreover, the IC50 at BChE (setting [2]) came to 184.2 ± 0.21 µM; on AChE (setting [3]) it was 138.5 ± 0.21 µM.

Take `C/C(=N\NC(=O)Cc1c[nH]c2ccccc12)c1ccccc1` [Compound 4e]: the inhibition at 500 µM at BChE (setting [1]) was 68.43 ± 0.18%; at AChE (setting [1]) it was 66.86 ± 0.36%. Further, the IC50 at BChE (setting [2]) is 146.21 ± 0.08 µM; on AChE (setting [3]), 174.51 ± 0.11 µM.

On to `O=C(Cc1c[nH]c2ccccc12)N/N=C/c1ccccc1` [Compound 4a], for which the inhibition at 500 µM was 79.58 ± 0.42% at BChE (setting [1]) and 63.11 ± 0.52% at AChE (setting [1]). In addition, the values for the IC50 at BChE (setting [2]) and at AChE (setting [3]) were 86.31 ± 0.14 µM and 198.61 ± 0.14 µM, respectively.

Take `O=C(Cc1c[nH]c2ccccc12)NN=C(c1ccccc1)c1ccccc1` [Compound 4f]: the inhibition at 500 µM is 89.51 ± 0.69% on BChE (setting [1]) and 89.3 ± 0.91% at AChE (setting [1]). For the same molecule, the IC50 is 59.81 ± 0.06 µM on BChE (setting [2]) and 91.21 ± 0.06 µM on AChE (setting [3]).

Take `O=C(Cc1c[nH]c2ccccc12)N/N=C/c1ccccc1O` [Compound 4b]: the “inhibitory activity against BChE (in words)” value on BChE is “weak”. In addition, the inhibition at 500 µM on BChE (setting [1]) was determined as 43.16 ± 0.18%; at AChE (setting [1]), 75.5 ± 0.33%. In addition, the IC50 on AChE (setting [3]) was found to be 103.11 ± 0.05 µM.

As to `COc1ccc(/C=N/NC(=O)Cc2c[nH]c3ccccc23)cc1` [Compound 4c], the inhibition at 500 µM on BChE (setting [1]) turned out to be 50.2 ± 0.69%; on AChE (setting [1]), 75.5 ± 0.56%. In addition, at AChE (setting [3]), the IC50 worked out at 109.6 ± 0.11 µM.

Consider `CC(=O)NNC(=O)Cc1c[nH]c2ccccc12` [Compound 5a, N'-acetyl-2-(1H-indol-3-yl)acetohydrazide], for which the inhibition at 500 µM was found to be 90.81 ± 0.69% at BChE (setting [1]) and 60.52 ± 0.25% at AChE (setting [1]). The IC50 at BChE (setting [2]) amounted to 55.21 ± 0.12 µM; on AChE (setting [3]), 298.61 ± 0.15 µM.

`O=C(Cc1c[nH]c2ccccc12)NNS(=O)(=O)c1ccc(Br)cc1` [Compound 6e, N'-(2-(1H-indol-3-yl)acetyl)-4-bromobenzenesulfonohydrazide]: the inhibition at 500 µM was 81.02 ± 0.14% on BChE (setting [1]) and 90.78 ± 0.32% at AChE (setting [1]). Besides, the half-maximal inhibitory concentration (IC50) on BChE (setting [2]) is 73.52 ± 0.04 µM; on AChE (setting [3]) it was 68.52 ± 0.04 µM.

In the case of `O=C(Cc1c[nH]c2ccccc12)NNS(=O)(=O)c1cccc([N+](=O)[O-])c1` [Compound 6c, N'-(2-(1H-Indol-3-yl)acetyl)-3-nitrobenzenesulfonohydrazide], the values for the inhibition at 500 µM on BChE (setting [1]) and on AChE (setting [1]) were 81.24 ± 0.52% and 56.21 ± 0.25%, respectively. Besides, at BChE (setting [2]), the IC50 is 78.51 ± 0.21 µM. The “inhibitory activity against AChE (in words)” value at AChE is “weak”.

For the molecule `O=C(Cc1c[nH]c2ccccc12)N/N=C/c1ccc(Cl)cc1` [Compound 4g], the inhibition at 500 µM was determined as 30.1 ± 0.58% at BChE (setting [1]) and 75.79 ± 0.25% on AChE (setting [1]). Further, the IC50 at AChE (setting [3]) came to 106.51 ± 0.07 µM.
